Data taken from patent US10017534B2, “Method for producing Tebbe complex” (KURARAY CO., LTD., priority 2014, dated 2018).

Assay: Measurement of solubility of Tebbe complex in a solvent (atomic absorption analysis of filtrate)
Details: for Solubility of Tebbe complex / Titanium atom contained in filtrate: 25° C.
Protocol: The measurement of the solubility of the Tebbe complex in a solvent was performed in the following manner. That is, 4 mL of a solvent of every kind was added to 1 g of a Tebbe complex obtained in the following Preparation Example 1; a solution after stirring at 25° C. for one hour was filtered with a membrane filter of 0.2 μm; the filtrate was subjected to atomic absorption analysis using the aforementioned polarized Zeeman atomic absorption spectrophotometer; and a titanium atom concentration was measured.
The measurement of the solubility of the Tebbe complex in a solvent was performed in the following manner. That is, 4 mL of a solvent of every kind was added to 1 g of the Tebbe complex obtained in Preparation Example 1; a solution after stirring at 25° C. for one hour was filtered with a membrane filter of 0.2 μm; and the filtrate was subjected to atomic absorption analysis using the aforementioned polarized Zeeman atomic absorption spectrophotometer, thereby measuring a titanium atom concentration.
Using a glove box, 1.0 g of the brownish-red crystal b1 of the Tebbe complex obtained in the method of Preparation Example 1 was weighed in a 20-mL eggplant type flask in an argon atmosphere, and a rotator and 4 mL of dehydrated hexane were added, followed by stirring at 25° C. for one hour. Thereafter, the resultant was allowed to stand and then filtered with a membrane filter of 0.2 μm, and 1.0 g of a filtrate containing the Tebbe complex was subjected to atomic absorption analysis, thereby measuring the solubility of the Tebbe complex.

Substance: μ-chloro-μ-methylene-bis(η^5-cyclopentadienyl)titanium dimethylaluminum [Tebbe complex]
- Solubility of Tebbe complex (1,4-dioxane): 1.43 mmol/g
- Titanium atom contained in filtrate (1,4-dioxane): 6.84 % by mass
- Solubility of Tebbe complex (2-hexene): 0.27 mmol/g
- Titanium atom contained in filtrate (2-hexene): 1.29 % by mass
- Solubility of Tebbe complex (2-methylpentane): 0.21 mmol/g
- Titanium atom contained in filtrate (2-methylpentane): 1.01 % by mass
- solubility of the Tebbe complex in 1 g of the solvent (aliphatic hydrocarbons of Test Examples 1 to 6, 25° C.): ≤ 0.5 mmol/g
- solubility of the Tebbe complex in 1 g of the solvent (aromatic hydrocarbons and ether compounds of Comparative Test Examples 1 to 8, 25° C.): more than 0.5 mmol/g
- Solubility of Tebbe complex (benzene): 1.18 mmol/g
- Titanium atom contained in filtrate (benzene): 5.65 % by mass
- Solubility of Tebbe complex (cyclohexane): 0.45 mmol/g
- Titanium atom contained in filtrate (cyclohexane): 2.15 % by mass
- Solubility of Tebbe complex (cyclopentyl methyl ether): 1.29 mmol/g
- Titanium atom contained in filtrate (cyclopentyl methyl ether): 6.17 % by mass
- Solubility of Tebbe complex (diisopropyl ether): 0.60 mmol/g
- Titanium atom contained in filtrate (diisopropyl ether): 2.87 % by mass
- Solubility of Tebbe complex (dodecane): 0.12 mmol/g
- Titanium atom contained in filtrate (dodecane): 0.57 % by mass
- Solubility of Tebbe complex (heptane): 0.21 mmol/g
- Titanium atom contained in filtrate (heptane): 1.01 % by mass
- Solubility of Tebbe complex (hexane): 0.22 mmol/g
- Titanium atom contained in filtrate (hexane): 1.05 % by mass
- Solubility of Tebbe complex (methylene chloride): 1.49 mmol/g
- Titanium atom contained in filtrate (methylene chloride): 7.13 % by mass
- Solubility of Tebbe complex (p-xylene): 0.94 mmol/g
- Titanium atom contained in filtrate (p-xylene): 4.50 % by mass
- Solubility of Tebbe complex (tetrahydrofuran): 1.71 mmol/g
- Titanium atom contained in filtrate (tetrahydrofuran): 8.19 % by mass
- Solubility of Tebbe complex (toluene): 0.93 mmol/g
- Titanium atom contained in filtrate (toluene): 4.45 % by mass
